Experimental data taken from PubChem BioAssay AID1963837 (Molecular Pharmacology Branch, DTP, NCI, 2024).

system: 843126-344-R-J1-PDC complex spheroid viability; test: Anticancer human tumor 843126-344-R-J1-PDC patient-derived melanoma cell line growth inhibition [POLQ]; details: second compound 10 µM; first compound 0.0316 µM; hits give low values
Outline: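 PDC + HUVEC + MSC complex spheroids; POLQ inhibitors ± partner drugs; top conc. at/near clinical Cmax, else 10 microM (SN-38 1 microM), half-log dilutions; 37 degrees C, 5% CO2.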
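Note: spheroids exposed to drugs for seven days before readout.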

Going from C=CC(=O)N1CCN(c2nc(=O)n(-c3c(C)ccnc3C(C)C)c3nc(-c4c(O)cccc4F)c(F)cc23)C(C)C1 (configuration not stated) + Nc1ccc(C#CCN(C(=O)Cc2ncc(C(F)(F)F)cc2C(F)(F)F)c2ccc(F)cc2)nn1 to CC1COCCN1c1cc(-c2ccnn2C)c2ccnc(-c3ccn[nH]3)c2n1 (configuration not stated) + Nc1ccc(C#CCN(C(=O)Cc2ncc(C(F)(F)F)cc2C(F)(F)F)c2ccc(F)cc2)nn1, the viability, T/C falls from 83.7% to 73.4%.

Compared with CC(C)n1c(=O)n(C)c2cnc3cc(F)c(-c4ccc(OCCCN5CCCCC5)nc4)cc3c21 + Nc1ccc(C#CCN(C(=O)Cc2ncc(C(F)(F)F)cc2C(F)(F)F)c2ccc(F)cc2)nn1, COc1ccc([C@@H](O)c2cc(-c3ncnc4cc(N5CCOCC5)ccc34)c(F)cc2Cl)nn1 + Nc1ccc(C#CCN(C(=O)Cc2ncc(C(F)(F)F)cc2C(F)(F)F)c2ccc(F)cc2)nn1 is lower in viability, T/C: 85.3% for the first, 80.2% for the second.

Going from CC1COCCN1c1cc(C2(S(C)(=N)=O)CC2)nc(-c2ccnc3[nH]ccc23)n1 (configuration not stated) + Nc1ccc(C#CCN(C(=O)Cc2ncc(C(F)(F)F)cc2C(F)(F)F)c2ccc(F)cc2)nn1 to Cn1ncnc1[C@H]1c2n[nH]c(=O)c3cc(F)cc(c23)N[C@@H]1c1ccc(F)cc1 + Nc1ccc(C#CCN(C(=O)Cc2ncc(C(F)(F)F)cc2C(F)(F)F)c2ccc(F)cc2)nn1, the viability, T/C falls from 94.6% to 88.6%.

same assay, conditions: second compound 10 µM; first compound 0.1 µM; hits give low values

Compared with C=CC(=O)N1CCN(c2nc(=O)n(-c3c(C)ccnc3C(C)C)c3nc(-c4c(O)cccc4F)c(F)cc23)C(C)C1 (configuration not stated) + Nc1ccc(C#CCN(C(=O)Cc2ncc(C(F)(F)F)cc2C(F)(F)F)c2ccc(F)cc2)nn1, CC1COCCN1c1cc(-c2ccnn2C)c2ccnc(-c3ccn[nH]3)c2n1 (configuration not stated) + Nc1ccc(C#CCN(C(=O)Cc2ncc(C(F)(F)F)cc2C(F)(F)F)c2ccc(F)cc2)nn1 is lower in viability, T/C: 91.1% for the first, 66.4% for the second.

Compared with CC(C)n1c(=O)n(C)c2cnc3cc(F)c(-c4ccc(OCCCN5CCCCC5)nc4)cc3c21 + Nc1ccc(C#CCN(C(=O)Cc2ncc(C(F)(F)F)cc2C(F)(F)F)c2ccc(F)cc2)nn1, COc1ccc([C@@H](O)c2cc(-c3ncnc4cc(N5CCOCC5)ccc34)c(F)cc2Cl)nn1 + Nc1ccc(C#CCN(C(=O)Cc2ncc(C(F)(F)F)cc2C(F)(F)F)c2ccc(F)cc2)nn1 is higher in viability, T/C: 73.2% for the first, 94.8% for the second.

Going from CC1COCCN1c1cc(C2(S(C)(=N)=O)CC2)nc(-c2ccnc3[nH]ccc23)n1 (configuration not stated) + Nc1ccc(C#CCN(C(=O)Cc2ncc(C(F)(F)F)cc2C(F)(F)F)c2ccc(F)cc2)nn1 to Cn1ncnc1[C@H]1c2n[nH]c(=O)c3cc(F)cc(c23)N[C@@H]1c1ccc(F)cc1 + Nc1ccc(C#CCN(C(=O)Cc2ncc(C(F)(F)F)cc2C(F)(F)F)c2ccc(F)cc2)nn1, the viability, T/C falls from 84% to 80.2%.

same assay, conditions: second compound 10 µM; first compound 0.316 µM; hits give low values

First: C=CC(=O)N1CCN(c2nc(=O)n(-c3c(C)ccnc3C(C)C)c3nc(-c4c(O)cccc4F)c(F)cc23)C(C)C1 (configuration not stated) + Nc1ccc(C#CCN(C(=O)Cc2ncc(C(F)(F)F)cc2C(F)(F)F)c2ccc(F)cc2)nn1
Second: CC1COCCN1c1cc(-c2ccnn2C)c2ccnc(-c3ccn[nH]3)c2n1 (configuration not stated) + Nc1ccc(C#CCN(C(=O)Cc2ncc(C(F)(F)F)cc2C(F)(F)F)c2ccc(F)cc2)nn1
The viability, T/C of the first is higher: 84.1% for the first, 52.8% for the second.

Compared with CC(C)n1c(=O)n(C)c2cnc3cc(F)c(-c4ccc(OCCCN5CCCCC5)nc4)cc3c21 + Nc1ccc(C#CCN(C(=O)Cc2ncc(C(F)(F)F)cc2C(F)(F)F)c2ccc(F)cc2)nn1, COc1ccc([C@@H](O)c2cc(-c3ncnc4cc(N5CCOCC5)ccc34)c(F)cc2Cl)nn1 + Nc1ccc(C#CCN(C(=O)Cc2ncc(C(F)(F)F)cc2C(F)(F)F)c2ccc(F)cc2)nn1 is lower in viability, T/C: 86.8% for the first, 85.4% for the second.

CC1COCCN1c1cc(C2(S(C)(=N)=O)CC2)nc(-c2ccnc3[nH]ccc23)n1 (configuration not stated) + Nc1ccc(C#CCN(C(=O)Cc2ncc(C(F)(F)F)cc2C(F)(F)F)c2ccc(F)cc2)nn1 showed a viability, T/C of 81.5%.

same assay, conditions: second compound 10 µM; first compound 1 µM; hits give low values

First: C=CC(=O)N1CCN(c2nc(=O)n(-c3c(C)ccnc3C(C)C)c3nc(-c4c(O)cccc4F)c(F)cc23)C(C)C1 (configuration not stated) + Nc1ccc(C#CCN(C(=O)Cc2ncc(C(F)(F)F)cc2C(F)(F)F)c2ccc(F)cc2)nn1
Second: CC1COCCN1c1cc(-c2ccnn2C)c2ccnc(-c3ccn[nH]3)c2n1 (configuration not stated) + Nc1ccc(C#CCN(C(=O)Cc2ncc(C(F)(F)F)cc2C(F)(F)F)c2ccc(F)cc2)nn1
The viability, T/C of the first is higher: 98.5% for the first, 43.9% for the second.

Compared with CC(C)n1c(=O)n(C)c2cnc3cc(F)c(-c4ccc(OCCCN5CCCCC5)nc4)cc3c21 + Nc1ccc(C#CCN(C(=O)Cc2ncc(C(F)(F)F)cc2C(F)(F)F)c2ccc(F)cc2)nn1, COc1ccc([C@@H](O)c2cc(-c3ncnc4cc(N5CCOCC5)ccc34)c(F)cc2Cl)nn1 + Nc1ccc(C#CCN(C(=O)Cc2ncc(C(F)(F)F)cc2C(F)(F)F)c2ccc(F)cc2)nn1 is lower in viability, T/C: 91.4% for the first, 82.7% for the second.

CC1COCCN1c1cc(C2(S(C)(=N)=O)CC2)nc(-c2ccnc3[nH]ccc23)n1 (configuration not stated) + Nc1ccc(C#CCN(C(=O)Cc2ncc(C(F)(F)F)cc2C(F)(F)F)c2ccc(F)cc2)nn1 was tested, and the viability, T/C was 75.1%.

same assay, conditions: second compound 10 µM; first compound 3.16 µM; hits give low values

Going from C=CC(=O)N1CCN(c2nc(=O)n(-c3c(C)ccnc3C(C)C)c3nc(-c4c(O)cccc4F)c(F)cc23)C(C)C1 (configuration not stated) + Nc1ccc(C#CCN(C(=O)Cc2ncc(C(F)(F)F)cc2C(F)(F)F)c2ccc(F)cc2)nn1 to CC1COCCN1c1cc(-c2ccnn2C)c2ccnc(-c3ccn[nH]3)c2n1 (configuration not stated) + Nc1ccc(C#CCN(C(=O)Cc2ncc(C(F)(F)F)cc2C(F)(F)F)c2ccc(F)cc2)nn1, the viability, T/C falls from 95.7% to 36.9%.

First: CC(C)n1c(=O)n(C)c2cnc3cc(F)c(-c4ccc(OCCCN5CCCCC5)nc4)cc3c21 + Nc1ccc(C#CCN(C(=O)Cc2ncc(C(F)(F)F)cc2C(F)(F)F)c2ccc(F)cc2)nn1
Second: COc1ccc([C@@H](O)c2cc(-c3ncnc4cc(N5CCOCC5)ccc34)c(F)cc2Cl)nn1 + Nc1ccc(C#CCN(C(=O)Cc2ncc(C(F)(F)F)cc2C(F)(F)F)c2ccc(F)cc2)nn1
The viability, T/C of the first is higher: 78.3% for the first, 78.2% for the second.

CC1COCCN1c1cc(C2(S(C)(=N)=O)CC2)nc(-c2ccnc3[nH]ccc23)n1 (configuration not stated) + Nc1ccc(C#CCN(C(=O)Cc2ncc(C(F)(F)F)cc2C(F)(F)F)c2ccc(F)cc2)nn1 gave a viability, T/C of 65.2%.

same assay, conditions: second compound 10 µM; first compound 10 µM; hits give low values

First: C=CC(=O)N1CCN(c2nc(=O)n(-c3c(C)ccnc3C(C)C)c3nc(-c4c(O)cccc4F)c(F)cc23)C(C)C1 (configuration not stated) + Nc1ccc(C#CCN(C(=O)Cc2ncc(C(F)(F)F)cc2C(F)(F)F)c2ccc(F)cc2)nn1
Second: CC1COCCN1c1cc(-c2ccnn2C)c2ccnc(-c3ccn[nH]3)c2n1 (configuration not stated) + Nc1ccc(C#CCN(C(=O)Cc2ncc(C(F)(F)F)cc2C(F)(F)F)c2ccc(F)cc2)nn1
The viability, T/C of the first is higher: 81.2% for the first, 29.1% for the second.

Compared with CC(C)n1c(=O)n(C)c2cnc3cc(F)c(-c4ccc(OCCCN5CCCCC5)nc4)cc3c21 + Nc1ccc(C#CCN(C(=O)Cc2ncc(C(F)(F)F)cc2C(F)(F)F)c2ccc(F)cc2)nn1, COc1ccc([C@@H](O)c2cc(-c3ncnc4cc(N5CCOCC5)ccc34)c(F)cc2Cl)nn1 + Nc1ccc(C#CCN(C(=O)Cc2ncc(C(F)(F)F)cc2C(F)(F)F)c2ccc(F)cc2)nn1 is lower in viability, T/C: 67.8% for the first, 62.6% for the second.

CC1COCCN1c1cc(C2(S(C)(=N)=O)CC2)nc(-c2ccnc3[nH]ccc23)n1 (configuration not stated) + Nc1ccc(C#CCN(C(=O)Cc2ncc(C(F)(F)F)cc2C(F)(F)F)c2ccc(F)cc2)nn1 showed a viability, T/C of 51.8%.
